According to US20260285850A1, “SUBSTITUTED OXAZOLIDINONES AND IMIDAZOLINONES AS HERBICIDES” (FMC CORPORATION, priority 2023, published 2026):

Experiments:
Format in all cases: in vivo
[1] = tested on: wheat (Triticum aestivum); assay: Test A postemergence application, visual injury rating 0-100
Summary of the method: (§1)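 Compound in a non-phytotoxic, surfactant-containing solvent is applied either as a directed soil spray before seedlings emerge or onto emerged plants 2-10 cm tall; pots hold a loam-sand blend. Plants grow 10 days under greenhouse conditions and are rated by eye against untreated controls (0 no effect, 100 complete control).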

[2] = tested on: oat, wild (wild oat, Avena fatua); assay: as above
Summary of the method: as §1

[3] = tested on: palmer (palmer amaranth, palmer pigweed, Amaranthus palmeri); assay: as above
Summary of the method: as §1

[4] = tested on: galium (catchweed bedstraw, Galium aparine); assay: as above
Summary of the method: as §1

[5] = tested on: ryegrass, Italian (italian ryegrass, Lolium multiflorum); assay: as above
Summary of the method: as §1

corn (Zea mays) [6] = assay: as above
Summary of the method: as §1

[7] = tested on: green foxtail (Setaria viridis); assay: as above
Summary of the method: as §1

kochia (Bassia scoparia) [8] = assay: as above
Summary of the method: as §1

[9] = tested on: horseweed (Erigeron canadensis); assay: as above
Summary of the method: as §1

soybean (Glycine max) [10] = assay: as above
Summary of the method: as §1

[11] = tested on: blackgrass (Alopecurus myosuroides); assay: as above
Summary of the method: as §1

[12] = tested on: ragweed (common ragweed, Ambrosia artemisiifolia); assay: as above
Summary of the method: as §1

[13] = tested on: barnyardgrass (Echinochloa crus-galli); assay: as above
Summary of the method: as §1

[14] = tested on: barnyardgrass (Echinochloa crusgalli); assay: Test B flooded paddy test, visual plant response rating 0-100; details: 250 g ai/ha, Flood, applied to paddy water, evaluated after 13 days
Summary of the method: (§2)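 Paddy-water application: test compounds went directly into water flooded 3 cm above the soil surface, with plants at 2 leaves. After a 13-day greenhouse period, responses were judged by eye relative to controls; a dash marks an untested entry.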

rice (Oryza sativa) = assay: as above; details: 250 g ai/ha, Flood, applied to paddy water, evaluated after 13 days
Summary of the method: as §2

[15] = tested on: sedge, umbrella (small-flower umbrella sedge, Cyperus difformis); assay: as above; details: 250 g ai/ha, Flood, applied to paddy water, evaluated after 13 days
Summary of the method: as §2

[16] = tested on: ducksalad (Heteranthera limosa); assay: as above; details: 250 g ai/ha, Flood, applied to paddy water, evaluated after 13 days
Summary of the method: as §2

[17] = tested on: wheat (Triticum aestivum); assay: Test A preemergence soil spray, visual injury rating 0-100; details: 10 days
Summary of the method: as §1

[18] = tested on: oat, wild (wild oat, Avena fatua); assay: as above; details: 10 days
Summary of the method: as §1

[19] = tested on: palmer (palmer amaranth, palmer pigweed, Amaranthus palmeri); assay: as above; details: 10 days
Summary of the method: as §1

[20] = tested on: ryegrass, Italian (italian ryegrass, Lolium multiflorum); assay: as above; details: 10 days
Summary of the method: as §1

corn (Zea mays) [21] = assay: as above; details: 10 days
Summary of the method: as §1

[22] = tested on: green foxtail (Setaria viridis); assay: as above; details: 10 days
Summary of the method: as §1

kochia (Bassia scoparia) [23] = assay: as above; details: 10 days
Summary of the method: as §1

soybean (Glycine max) [24] = assay: as above; details: 10 days
Summary of the method: as §1

[25] = tested on: blackgrass (Alopecurus myosuroides); assay: as above; details: 10 days
Summary of the method: as §1

[26] = tested on: ragweed (common ragweed, Ambrosia artemisiifolia); assay: as above; details: 10 days
Summary of the method: as §1

[27] = tested on: barnyardgrass (Echinochloa crus-galli); assay: as above; details: 10 days
Summary of the method: as §1

[28] = 62 g ai/ha, postemergence, 10 days, 0 = no effect, 100 = complete control
[29] = Postemergence, 16 g ai/ha, greenhouse 10 days, 0 no effect, 100 complete control
[30] = 62 g ai/ha, 0 = no effect, 100 = complete control

C=CC1(C(=O)NC2C=CC(C(=O)OC)C2)CN(c2cc(F)cc(F)c2)C(=O)O1 (single isomer, unassigned) [Compound 168]
10: Corn plant response rating (0-100) (corn (Zea mays) [6]; [28]) | Barnyardgrass plant response rating (0 to 100 scale) [13, 29]
0: Wheat plant response rating (0-100) [1, 28] | Wheat plant response rating (0 to 100 scale) [1, 29] | Oat, Wild plant response rating (0-100) [2, 28] | Oat, Wild plant response rating (0 to 100 scale) [2, 29] | Pigweed, Palmer plant response rating (0-100) [3, 28] | Pigweed, Palmer plant response rating (0 to 100 scale) [3, 29] | Galium plant response rating (0-100) [4, 28] | Galium plant response rating (0 to 100 scale) [4, 29] | Ryegrass, Italian plant response rating (0-100) [5, 28] | Ryegrass, Italian plant response rating (0 to 100 scale) [5, 29] | Corn plant response rating (0 to 100 scale) (corn (Zea mays) [6]; [29]) | Foxtail, Green plant response rating (0-100) [7, 28] | Foxtail, Green plant response rating (0 to 100 scale) [7, 29] | Kochia plant response rating (0-100) (kochia (Bassia scoparia) [8]; [28]) | Kochia plant response rating (0 to 100 scale) (kochia (Bassia scoparia) [8]; [29]) | Horseweed plant response rating (0-100) [9, 28] | Horseweed plant response rating (0 to 100 scale) [9, 29] | Soybean plant response rating (0-100) (soybean (Glycine max) [10]; [28]) | Soybean plant response rating (0 to 100 scale) (soybean (Glycine max) [10]; [29]) | Blackgrass plant response rating (0-100) [11, 28] | Blackgrass plant response rating (0 to 100 scale) [11, 29] | Ragweed plant response rating (0-100) [12, 28] | Ragweed plant response rating (0 to 100 scale) [12, 29] | Plant response rating, Barnyardgrass (0 to 100 scale, 0 is no effect and 100 is complete control) [14] | Plant response rating, Rice (0 to 100 scale, 0 is no effect and 100 is complete control) (rice (Oryza sativa)) | Plant response rating, Sedge, Umbrella (0 to 100 scale, 0 is no effect and 100 is complete control) [15] | Plant response rating, Ducksalad (0 to 100 scale, 0 is no effect and 100 is complete control) [16] | Wheat plant response rating ([17]; 16 g ai/ha, 0 to 100 scale) | Wheat plant response rating (0-100) [17, 30] | Oat, Wild plant response rating ([18]; 16 g ai/ha, 0 to 100 scale) | Oat, Wild plant response rating (0-100) [18, 30] | Pigweed, Palmer plant response rating ([19]; 16 g ai/ha, 0 to 100 scale) | Pigweed, Palmer plant response rating (0-100) [19, 30] | Ryegrass, Italian plant response rating ([20]; 16 g ai/ha, 0 to 100 scale) | Ryegrass, Italian plant response rating (0-100) [20, 30] | Corn plant response rating (corn (Zea mays) [21]; 16 g ai/ha, 0 to 100 scale) | Corn plant response rating (0-100) (corn (Zea mays) [21]; [30]) | Foxtail, Green plant response rating ([22]; 16 g ai/ha, 0 to 100 scale) | Foxtail, Green plant response rating (0-100) [22, 30] | Kochia plant response rating (kochia (Bassia scoparia) [23]; 16 g ai/ha, 0 to 100 scale) | Kochia plant response rating (0-100) (kochia (Bassia scoparia) [23]; [30]) | Soybean plant response rating (soybean (Glycine max) [24]; 16 g ai/ha, 0 to 100 scale) | Soybean plant response rating (0-100) (soybean (Glycine max) [24]; [30]) | Blackgrass plant response rating ([25]; 16 g ai/ha, 0 to 100 scale) | Blackgrass plant response rating (0-100) [25, 30] | Ragweed plant response rating ([26]; 16 g ai/ha, 0 to 100 scale) | Ragweed plant response rating (0-100) [26, 30] | Barnyardgrass plant response rating ([27]; 16 g ai/ha, 0 to 100 scale) | Barnyardgrass plant response rating (0-100) [27, 30]
20: Barnyardgrass plant response rating (0-100) [13, 28]
